# Test results reported in patent US11833144B2, “Treating autoimmune disease” (Mayo Foundation for Medical Education and Research, priority 2020, dated 2023).
# Tests used:
# activated murine B cells = assay: TMRM staining of mitochondrial membrane potential in activated murine B cells; format: cell-based, mouse; conditions: 72 hours; for mitochondrial membrane potential (TMRM): substance alone
# Method: For analysis of surface markers, cells were stained in PBS containing 1% (w/v) bovine serum albumin on ice for 30 minutes, with anti-IgG1 (RMG1-1, Biolegend), anti-CD19 (ID3, Biolegend) anti-B220 (RA3-6B2, Biolegend), anti-CD4 (GK1.5, Biolegend), anti-CD8 (53-6.7, Biolegend), anti-CD25 (PC16, Biolegend), anti-GL7 (GL-7, Biolegend), anti-CD95 (Jo2, BD Biosciences), anti-CD138 (281-2, Biolegend), anti-IgD (11-26c.2a, Biolegend), anti-PD-1 (J43, ThermoFisher), anti-IgM (II/41, ThermoFisher). Antigen specific GC response was detected with tetramer NP-phycoerythrin conjugated with PE (Biosearch Technologies). CXCR5 was stained with biotinylated anti-CXCR5 (2G8) followed by staining with streptavidin-conjugated PE (both from BD Biosciences). Cell viability was assessed using the Fixable Dye Ghost 510 (Tonbo Bioscience) or Annexin V cell apoptosis kit with 7-AAD (ThermoFisher) following the manufacturer's protocol. Phosflow staining for phospho-S6 (S235/236) was performed using Phosflow Fix/Perm kit (BD Biosciences). Mitochondrial potential was measured by staining with 20 nM TMRM (ThermoFisher) following manufacturer's instructions. Flow cytometry was performed on the LSR II, LSR Fortessa (BD Biosciences) or Attune NxT (ThermoFisher) cytometers, and analysis was performed using FlowJo software (Tree Star).
# human B cells = assay: Human naive B cell proliferation (thymidine incorporation) and CD27 expression; format: cell-based
# Method: PBMCs were isolated from the medical waste following apheresis collection of platelets. Briefly, blood was diluted 1:3 using PBS. The diluted blood was then overlaid with Ficoll-Paque PLUS density gradient medium (GE Healthcare). The gradient was centrifuged at 400 g with no brake for 25 minutes at room temperature. The PBMC interphase layer was collected, washed with PBS with 0.1% BSA/2 mM of EDTA. Naive B cells (CD19^+CD27^−IgD^+) were enriched using Human naive B cell negative selection kit (Stemcell Technologies). Mouse B cells were isolated from pooled single cell suspensions of spleen and peripheral lymph nodes using CD19 Microbeads (Miltenyi) or Mouse B cell Isolation Kit (Stemcell Technologies). B cells were stimulated with LPS (10 μg/mL; Sigma-Aldrich) and recombinant IL-4 cytokine (10 ng/mL; Tonbo Bioscience) with or without SCD inhibitor SSI-4, and proliferation was measured by dilution of CellTrace Violet proliferation dye (Thermo Fisher Scientific). B cells were also stimulated with anti-IgM (10 μg/mL; Jackson ImmunoResearch), anti-CD40 (10 μg/mL; BioXcell) and IL-4 (10 ng/mL; Tonbo Bioscience), or TLR ligand CpG (2.5 μM; IDT), recombinant IL-4 and IL-5 (10 ng/mL; Tonbo Bioscience) cytokines. To test the function of monounsaturated and saturated fatty acids, B cells were activated in presence of exogenous fatty acid-BSA conjugate. Palmitoleic acid (NU-CHEK PREP, INC), palmitic acid (NU-CHEK PREP, INC), stearic acid (NU-CHEK PREP, INC) were conjugated with fatty acid free BSA (Sigma-Aldrich) as described elsewhere (Wang et al., Immunity 35:871-882 (2011)). Human B cells were activated with CpG OND2006 (2.5 μM; IDT), recombinant human cytokine IL-10 ([…]; Peprotech), IL-15 (10 ng/mL; Peprotech), IL-4 (10 ng/mL; Biolegend), IL-2 (10 unit/mL) and anti-human CD40 (1 μg/mL; BioXcell). Human B cell proliferation was measured by ^3[H]-thymidine incorporation (1 μCi/mL) (American Radiolabeled Chemicals).
# [1] = tested on: C57BL/6 mice receiving bm12 splenocytes; assay: bm12 splenocyte transfer lupus (cGvHD) model fed SSI-4 chow; format: in vivo, mouse; conditions: SSI-4 chow 30 mg/kg
# Method: MRL/MpJ-Fas^lpr mice and B6 (C)-H2-Ab1^bm12/KhEgJ (bm12) mice were purchased from the Jackson Laboratory. Six weeks old female MRL/MpJ-Fas^lpr mice were treated with control chow or SSI-4 chow (60 mg/kg, on a two-week SSI-4 chow/control-chow alternating schedule) ad libitum for 15 weeks. Proteinuria was measured using Albustix strips (Siemens). Kidney histology was done using routine H&E staining. Thirty million splenocytes from 8 weeks old B6 (C)-H2-Ab1^bm12/KhEgJ (bm12) mice were transferred into C57BL/6 mice intraperitoneally. Mice were fed with control chow or SSI-4 chow (30 mg/kg, on an one-week SSI-4 chow/control-chow alternating schedule) ad libitum for 8 weeks.
# For analysis of surface markers, cells were stained in PBS containing 1% (w/v) bovine serum albumin on ice for 30 minutes, with anti-B220 (RA3-6B2, Biolegend), anti-CD4 (GK1.5, Biolegend), anti-CD138 (281-2, Biolegend), anti-PD-1 (J43, ThermoFisher). CXCR5 was stained with biotinylated anti-CXCR5 (2G8) followed by staining with streptavidin-conjugated PE (both from BD Biosciences). Cell viability was assessed using the Fixable Dye Ghost 510 (Tonbo Bioscience) following the manufacturer's protocol. Flow cytometry was performed on the LSR II, LSR Fortessa (BD Biosciences) or Attune NxT (ThermoFisher) cytometers, and analysis was performed using FlowJo software (Tree Star).
# activated mouse B cells = assay: Transmission electron microscopy of autophagosomes in activated mouse B cells; format: cell-based; conditions: SSI-4 treated B cells
# Method: Cells were fixed in Trumps fixative (pH 7.2) at 4° C. overnight, spun down and the supernatant removed. They were re-suspended in 2% agarose which was allowed to cool and solidify. The cells in agarose were then post-fixed in 1% OsO4, dehydrated through a graded series of ethanols and embedded in Spurr resin. One hundred nm […] ultra-thin sections were mounted on 200-mesh copper grids, post-stained with lead citrate, and observed under a JEOL JEM-1400 transmission electron microscope at 80 kV.
# mice = assay: Mice fed SSI-4 chow: serum fatty acids (GC-MS) and lymphocyte development; format: in vivo, mouse
SMILES,mitochondrial membrane potential (TMRM) under SCD inhibition with exogenous OA (activated murine B cells; SSI-4 plus OA),mitochondrial membrane potential (TMRM) (activated murine B cells),restoration of human B cell proliferation and CD27 expression upon SSI-4 treatment (human B cells; SSI-4 (10 nM) plus exogenous OA),"human B cell activation measured by CD27 expression, exogenous OA alone (human B cells; flow cytometry MFI)","human B cell proliferation, exogenous OA alone (human B cells; thymidine incorporation)",generation of CXCR5+PD-1+ follicular helper T cells [1],generation of IgD-CD138+ plasma cells [1],"serum anti-dsDNA autoantibody level ([1]; one-week alternating schedule, 8 weeks, ELISA)",autophagosome structures by transmission electron microscopy (activated mouse B cells),CD25+ pre-B cells in bone marrow (mice; SSI-4 chow),GC percentage and IgA expression in Peyer's patches (mice; SSI-4 chow),composition of thymocytes (mice; SSI-4 chow),number of peripheral B cells and CD4+ T cells (mice; SSI-4 chow),pool of immature B cells and B cell precursors (CD19+ B220int) in bone marrow (mice; SSI-4 chow),"serum OA and PO concentration (mice; SSI-4 chow for 1 week, GC-MS)","frequency of mature B cells (CD19+IgMloIgD+) (mice; SSI-4 chow, spleen)"
"CCCCCCCC/C=C\CCCCCCCC(=O)O [OA, oleic acid]",corrected,able to increase mitochondrial membrane potential,restored B cell proliferation and CD27 expression,promoted,promoted human B cell proliferation,–,–,–,–,–,–,–,–,–,–,–
"CNC(=O)c1ccnc(NC(=O)N2CCC(Oc3ccccc3Cl)CC2)c1 [SSI-4, 2-{[4-(2-Chlorophenoxy)piperidine-1-carbonyl]amino}-N-methylpyridine-4-carboxamide]",–,reduced mitochondrial membrane potential,–,–,–,reduced,reduced,reduced,increased structures with double layer membrane,significant reduction,modest reduction,unaffected,not affected,significant reduction,markedly reduced,slightly increased
